Columns and labels:
[1] = molecular target: T1, TbPRMT6 (Trypanosoma brucei, UniProt Q57U70); test: in vitro methylation of Trx-H4tail, western blot for asymmetric dimethyl H4R3; type: biochemical; conditions: 40 uM SAM, 1 ug Trx-H4tail (bovine histone H4 residues) as co-substrate; 30 mM Tris pH 8.0, 100 mM NaCl, 1 mM EDTA, 5 mM DTT, 37 C, 12 h
T1 construct: gene Tb05.6E7.1000; full-length, E. coli BL21(DE3), modified pET28a, N-terminal 6xHis cut by TEV protease; 41 kDa monomer, homodimer; residues 1-24 and 228-229 disordered in crystal
T1 sequence (Q57U70 1-368): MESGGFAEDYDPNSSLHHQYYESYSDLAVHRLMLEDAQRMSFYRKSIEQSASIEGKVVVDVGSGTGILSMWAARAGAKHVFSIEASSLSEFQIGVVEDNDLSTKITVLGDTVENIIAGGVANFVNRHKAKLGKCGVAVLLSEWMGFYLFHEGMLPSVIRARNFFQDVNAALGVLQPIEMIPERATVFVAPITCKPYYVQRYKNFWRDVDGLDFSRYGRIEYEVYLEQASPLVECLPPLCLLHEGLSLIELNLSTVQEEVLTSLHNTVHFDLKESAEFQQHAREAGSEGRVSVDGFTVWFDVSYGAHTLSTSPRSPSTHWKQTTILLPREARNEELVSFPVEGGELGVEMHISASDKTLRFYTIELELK

[2] = molecular target: T1, TbPRMT6; test: X-ray crystal structure, […] A; conditions: co-crystallised with three-fold molar excess SAH; 100 mM citrate pH 5.5, 20% PEG3000, 293 K; SAM-binding pocket

Compound | in vitro methylation of Trx-H4tail, western blot for asymmetric dimethyl H4R3 [1] | X-ray crystal structure, 2.35 A [2]
C[S+](CC[C@H](N)C(=O)O)C[C@H]1O[C@@H](n2cnc3c(N)ncnc32)[C@H](O)[C@@H]1O (stereo partly drawn) [SAM, S-adenosyl-L-methionine] | our result also showed that TbPRMT6 can methylate bovine histone H4R3 | 
Nc1ncnc2c1ncn2[C@@H]1O[C@H](CSCC[C@H](N)C(=O)O)[C@@H](O)[C@H]1O [SAH, S-adenosyl-homocysteine] |  | Structures of apo-TbPRMT6 and in complex with SAH (SAH-TbPRMT6) were resolved and refined

Reference: article PMC3911951, “Crystal Structure of Arginine Methyltransferase 6 from Trypanosoma brucei” (PLoS ONE, 2014)
